This is an account of results in publication PMC12473906, “Comparing the Altis RepliGut Organoid System to MDCK Monolayers in Predicting the Oral Absorption of Lenalidomide” (Pharmaceutics, 2025).

Data set [1] relates to human intestinal organoid-derived monolayer (RepliGut). Briefly: RepliGut human jejunal organoid-derived monolayer permeability assay.
Test in data set [2]: as above
As to conditions: human.

The target of a further data set is T1, human P-gp (Homo sapiens, UniProt P08183).
T1 construct: expressed in transfected cells; host or cells: gMDCK (P-gp-knockout Madin-Darby Canine Kidney cells), puromycin selection
Put plainly: Bidirectional permeability in gMDCK cells overexpressing human P-gp (gMDCK-MDR1). Conditions: gMDCK P-gp overexpressing cells and organoids. In kind it is in vitro ADME. The method, then: (§1) gMDCK cells were maintained in Dulbecco’s Modified Eagle’s Medium (DMEM) supplemented with Gibco’s MEM amino acids solution (1 X), penicillin (100 units/mL), streptomycin ([…]), and 10% fetal bovine serum and in a humidified, 37 °C, 5% CO2 environment as previously described. Efflux transporter-expressing gMDCK cells, gMDCK-P-gp and gMDCK-BCRP, were cultured in the above-mentioned medium with addition of puromycin (2 µg/mL). All cells were passaged at approximately 80% confluency in T-175 flasks. For permeability assays, gMDCK, gMDCK-P-gp, and gMDCK-BCRP cells were seeded on 96 transwell plates (approximately 40,000 cells/well) and allowed to grow for 48 h in a 37 °C, 5% CO2 environment. Digitonin (10–40 mg/L) was included in some experiments to loosen tight junctions to explore paracellular permeability. TEER values were measured on the day of the experiment using an EVOM^TM Auto (World Precision Instruments, Sarasota, FL, USA).
(§2) Lenalidomide dosing solutions (1–500 µM) were diluted from DMSO stock (500 mM) with HEPES-buffered HBSS (with Ca^2+ and Mg^2+, 10 mM HEPES, pH 7.4) + 20 µM Lucifer yellow resulting in a final DMSO content of 0.2%. Lucifer yellow was measured fluorometrically (Ex/Em 428/532 nm) to assess tight junctions/paracellular transport. Permeability of lenalidomide was assessed bidirectionally in both in vitro models over three hours, and cell monolayers were collected at the end of the experiment.
(§3) Briefly, for assessing apical to basolateral (A to B) permeability, 150 uL of lenalidomide dosing solutions was added to apical side of the transwell, and 250 uL of HEPES-buffered HBSS without Lucifer yellow was added to basolateral side. For evaluating basolateral to apical (B to A) permeability, 250 uL of dosing solutions was added to the basolateral side, and 150 uL of HEPES-buffered HBSS without Lucifer yellow was added to the apical side. An amount of 10 µL was sampled from the dosing side of the transwell at the beginning and the end of the experiment. An amount of 25 µL was sampled from the receiver side at 1, 2, and 3 h.
(§4) Apparent permeability (Papp) was calculated according to the following equation: Papp = (dQ/dt)/(A * C), where dQ/dt is the amount of drug that crosses the membrane per unit of time, A is the surface area of the membrane through which the drug is permeating (0.143 cm^2), and C is the initial concentration added to cells. The efflux ratio was calculated according to the following equation:(4) Efflux ratio= Papp basolateral to apical/Papp apical to basolateral

A further data set has as its target T2, P-gp (MDR1) (Homo sapiens, UniProt P08183).
T2 construct: expressed in transfected cells; host or cells: gMDCK (P-gp-knockout Madin-Darby Canine Kidney cells), puromycin selection
The description is as above. Conditions: human, MDCK-MDR1, pH 7.4; gMDCK-MDR1. In kind it is in vitro ADME. The method, then:
as §1, §2, §3, §4

Setting [3] is: pH 7.4, with elacridar + Ko143 (concentrations not given).

Entries after “also recorded” stand apart in the source; their conditions may differ.

T2 sequence (P08183 whole entry): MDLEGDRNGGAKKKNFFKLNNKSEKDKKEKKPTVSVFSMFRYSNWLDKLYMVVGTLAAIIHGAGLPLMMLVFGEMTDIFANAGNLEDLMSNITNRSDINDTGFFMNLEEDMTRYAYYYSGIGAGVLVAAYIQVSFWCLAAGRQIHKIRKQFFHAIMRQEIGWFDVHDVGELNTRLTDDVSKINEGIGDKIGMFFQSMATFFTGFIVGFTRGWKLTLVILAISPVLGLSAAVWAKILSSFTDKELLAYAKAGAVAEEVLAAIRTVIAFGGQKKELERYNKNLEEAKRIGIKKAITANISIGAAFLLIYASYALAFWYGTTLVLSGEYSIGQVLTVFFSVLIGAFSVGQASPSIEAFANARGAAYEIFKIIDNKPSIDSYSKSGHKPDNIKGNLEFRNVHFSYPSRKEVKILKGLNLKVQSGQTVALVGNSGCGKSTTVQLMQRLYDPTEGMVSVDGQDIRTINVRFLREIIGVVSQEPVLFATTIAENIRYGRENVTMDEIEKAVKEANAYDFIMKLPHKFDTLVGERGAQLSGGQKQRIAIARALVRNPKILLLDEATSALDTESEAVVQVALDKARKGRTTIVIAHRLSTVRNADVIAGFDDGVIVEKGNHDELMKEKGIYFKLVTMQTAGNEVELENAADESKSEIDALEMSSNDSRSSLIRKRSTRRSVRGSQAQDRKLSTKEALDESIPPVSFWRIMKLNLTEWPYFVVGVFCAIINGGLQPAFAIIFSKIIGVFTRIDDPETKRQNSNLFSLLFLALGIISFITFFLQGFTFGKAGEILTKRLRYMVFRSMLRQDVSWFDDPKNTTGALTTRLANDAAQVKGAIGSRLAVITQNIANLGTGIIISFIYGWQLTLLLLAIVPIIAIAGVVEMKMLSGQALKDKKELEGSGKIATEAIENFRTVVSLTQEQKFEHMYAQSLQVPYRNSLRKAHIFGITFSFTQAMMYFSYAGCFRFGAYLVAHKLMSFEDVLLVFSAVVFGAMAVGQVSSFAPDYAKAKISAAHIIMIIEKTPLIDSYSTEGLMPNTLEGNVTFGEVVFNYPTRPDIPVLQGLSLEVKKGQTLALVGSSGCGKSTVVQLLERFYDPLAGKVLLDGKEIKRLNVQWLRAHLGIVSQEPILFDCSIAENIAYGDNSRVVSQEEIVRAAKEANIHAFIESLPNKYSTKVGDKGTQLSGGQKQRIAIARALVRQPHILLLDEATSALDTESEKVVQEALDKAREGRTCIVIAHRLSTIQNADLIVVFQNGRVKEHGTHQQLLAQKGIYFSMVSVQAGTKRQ
T1 sequence (P08183 whole entry): as above

For orientation: Papp A→B means how fast a substance crosses the layer from the apical side. By Papp B→A is commonly meant how fast a substance crosses the layer from the basolateral side. The Papp is a coefficient for how fast a substance crosses the barrier. The efflux ratio is a quotient of directional permeabilities that is used to spot active efflux. Consider `Nc1cccc2c1CN(C1CCC(=O)NC1=O)C2=O` (centres unmarked) [Lenalidomide], for which the “Efflux Substrate” value in data set [1] (Yes/No) was “Yes”. For the same molecule, the “intracellular concentrations in intestinal organoids with and without elacridar” value in data set [1] (apical dosing) was “similar”. In data set [1] (basolateral dosing), the “accumulation in cells, gMDCK vs organoids” value was “greater in gMDCK cells than organoids”. Moreover, the “intracellular accumulation in organoids, lower than gMDCK” value in data set [1] (basolateral to apical direction) is reported as “approximately 10 fold”. The “accumulation in the cellular compartment, organoid vs gMDCK monolayers” value in data set [1] (dosed apically) is “no significant difference”. In addition, in data set [1] (organoid vs gMDCK), the “apical to basolateral apparent permeability in intestinal organoids compared with gMDCK monolayers” value is given as “significantly higher” and the “basolateral to apical permeability in intestinal organoids compared with gMDCK cells” value is recorded as “significantly higher”. In data set [2] (pH 7.4), this molecule had an apical-to-basolateral permeability (Papp A→B) at 3 h of 0.58 ×10⁻⁶ cm/s; a Papp B→A at 3 h of 2.64 ×10⁻⁶ cm/s; a Papp at 3 h of approximately 0.6 ×10⁻⁶ cm/s; an apparent permeability (Papp) at 3 h, 500 µM of 0.58 ×10⁻⁶ cm/s. Also, in data set [2] (pH 7.4, Efflux Ratio, human jejunal organoids, Papp B to A/Papp A to B), the efflux ratio at 3 h was found to be 4.6. The efflux ratio at 3 h in data set [2] (pH 7.4, efflux ratio, intestinal organoids, all concentrations) fell in the range of 3 to 4. Further, the efflux ratio at 3 h in data set [2] (pH 7.4, with elacridar 5 µM + Ko143 1 µM, Efflux Ratio, human jejunal organoids + elacridar (5 μM) + Ko143 (1 μM)) is approximately 1. In data set [2] (setting [3]), the Papp A→B at 3 h came out at 0.52 ×10⁻⁶ cm/s and the Papp B→A at 3 h turned out to be 0.8 ×10⁻⁶ cm/s. Further, on human P-gp, the P-gp substrate entry is “substrate for both transporters; also recorded: substrate of both P-gp and BCRP”. For the same molecule, on P-gp (MDR1), the apical-to-basolateral permeability (Papp A→B) at 3 h was found to be 0.2 ×10⁻⁶ cm/s, the Papp B→A at 3 h was found to be 2.8 ×10⁻⁶ cm/s and the efflux ratio at 3 h came out at 14.
